These results are taken from patent publication US8653046B2, “Controlling transgene expression across the skin” (ETH Zurich, priority 2009, dated 2014).

In series [1] the test system is microencapsulated CHO-PEACE8 implants. The series can be described thus: Transdermal phloretin control of SEAP from microencapsulated CHO-PEACE8 implanted subcutaneously in mice. It counts as in vivo, female OF1 mice. The following applies: vaseline-based skin lotion 200 μL, 0-42 mg phloretin, every day; 72 h after implantation. As for the experimental part: (A) Microencapsulated CHO-PEACE8 are implanted subcutaneously into female OF1 mice (2×10^6 cells/mouse). 200 μL of a cream containing different amounts of phloretin (0, 5.25, 10.5, 21 and 42 mg) is applied to a shaved skin area near the implant site. SEAP serum levels are quantified 72 h post implantation.
CHO-PEACE8 is microencapsulated in coherent alginate-PLL-alginate capsules and implanted subcutaneously into mice. The back of treated mice is partially shaved and vaseline-based skin lotions (200 μL) containing different amounts of phloretin (0-42 mg) are put on every day. […]
(§1) CHO-PEACE8 and CHO-SEAP18 (Fluri D. A., Kemmer C., Daoud-El Baba M., Fussenegger M., 2008, J Control Release 131(3):211-219) are encapsulated in alginate-poly-(L-lysine)-alginate beads (400 μm; 200 cells/capsule) using an Inotech Encapsulator Research IE-50R (Recipharm, Basel, Switzerland) according to the manufacturer's instructions and the following parameters: 0.2 mm nozzle, 20 mL syringe at a flow rate of 405 units, nozzle vibration frequency of 1024 Hz and 900 V for bead dispersion. […] Thereafter, the mice are sacrificed, blood samples collected and SEAP levels are quantified in the serum which is isolated using microtainer SST tube according to the manufacturer's instructions (Beckton Dickinson, Plymouth, UK). […]

The test system of series [2] is CHO-K1 cells transgenic for constitutive SEAP expression. The series can be described thus: Control mice receiving CHO-K1 cells transgenic for constitutive SEAP expression, phloretin skin lotion. It counts as in vivo, female OF1 mice. The following applies: constitutive SEAP implant; skin lotion with 42 mg phloretin (0 mg: 6.2±0.43 U/L). As for the experimental part: CHO-PEACE8 is microencapsulated in coherent alginate-PLL-alginate capsules and implanted subcutaneously into mice. The back of treated mice is partially shaved and vaseline-based skin lotions (200 μL) containing different amounts of phloretin (0-42 mg) are put on every day. […] Control mice receiving CHO-K1 cells transgenic for constitutive SEAP expression are insensitive to any treatment with phloretin-containing skin lotion (0 mg phloretin: 6.2±0.43 U/L; 42 mg phloretin: 6.02±0.58 U/L).
as §1

In series [3] the test system is macrolide-responsive control system (ET1, E-VP16; PETR3-SAMY-pA). The series can be described thus: Compatibility test: macrolide-responsive (EOFF) SAMY production in CHO-PEACE8 (pWW35, pBP100). It counts as cell-based. The following applies: CHO-PEACE8 transiently transfected with macrolide-responsive control system; Phl 50 μM, EM 2 μg/mL; 48 h; 100 = no inducer. From the text:
To evaluate the functional compatibility of PEACE with the established tetracycline— [TETOFF; Gossen M., Bujard H., 1992, Proc Natl Acad Sci USA 89(12):5547-5551] and macrolide— [EOFF; Weber W., et al., 2002, Nat Biotechnol 20(9):901-907] responsive expression circuits CHO-PEACE8 is transiently transfected, transgenic for phloretin-responsive SEAP expression, with either the TETOFF-(pSAM200, PSV40-tTA-pA; pBP99, PhCMV*-1-SAMY-pA) or the EOFF-(PWW35, PSV40-ET1-pA; pBP100, PETR3-SAMY-pA) system set to control the Bacillus stearothermophilus-derived secreted α-amylase (SAMY) in response to tetracycline and erythromycin, respectively. SEAP and SAMY expression are scored 48 h after cultivation of the transfected populations in the presence (50 μM; 2 μg/mL) or absence of the inducer molecules (phloretin, tetracycline, erythromycin).

For series [4] the following is noted: rodents, cited from earlier work.
Series [5] in a line: Stability (half-live) of phloretin in culture medium, quantified via CHO-PEACE8 SEAP calibration curve. It counts as physicochemical.
For the next series, the system named is TtgA3 (TtgR-E2F4). The series can be described thus: PEACE: SEAP expression after transient co-transfection of pMG10 and pMG19 (PSV40-TtgA3-pA). It counts as cell-based, Pseudomonas putida DOT-T1E. Conditions: 48 h. The text has this: Three different transactivators are designed, harboring either the VP16 (TtgA1; pMG11, TtgR-VP16) (Triezenberg S. J. et al., loc. cit.), the p65 (TtgA2; pMG18, TtgR-p65) (Urlinger S., et al., 2000, Gene 247(1-2):103-110) or the human E2F4 (TtgA3; pMG19, TtgR-E2F4) (Akagi K., Kanai M., Saya H., Kozu T., Berns A., 2001, Nucleic Acids Res 29(4):e23) transactivation domains. pMG11, pMG18 or pMG19 are co-transfected with pMG10 (PTtgR1-SEAP-pA) into CHO-K1, HEK-293 as well as primary human fibroblasts and keratinocytes, and SEAP expression is profiled after 48 h of cultivation in the presence or absence of 50 μM phloretin. […] All transactivators mediate similar basal expression levels when phloretin is […] in the medium, but due to their cell-type specificity and graded maximum transcription-initiation capacities, the three transactivators offer a selection of defined expression windows.

Another series addresses TtgA1 (TtgR-VP16) (Pseudomonas putida, UniProt Q9AIU0). The series can be described thus: Autoregulated PEACE-controlled SEAP expression (pMG13) in CHO-K1. Conditions: 50 μM phloretin, 48 h. The arrangement: expressed in transfected cells; host or cells: CHO-K1 (transient pMG11 or pMG13); also HEK-293, BHK-21, COS-7, HaCaT, HT-1080, NIH/3T3, primary human fibroblasts and keratinocytes. It counts as cell-based.

Each structure is given as a SMILES string.

Chain of TtgA1 (TtgR-VP16) (Q9AIU0 whole entry, added parts left off): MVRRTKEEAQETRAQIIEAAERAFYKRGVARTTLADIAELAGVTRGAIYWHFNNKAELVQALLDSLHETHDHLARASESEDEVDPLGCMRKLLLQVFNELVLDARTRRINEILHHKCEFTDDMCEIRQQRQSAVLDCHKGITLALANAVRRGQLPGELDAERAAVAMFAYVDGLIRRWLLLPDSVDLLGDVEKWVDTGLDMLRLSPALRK

For the molecule `O=C(CCc1ccc(O)cc1)c1c(O)cc(O)cc1O` [phloretin, 3-[4-hydroxyphenyl]-1-[2,4,6-trihydroxyphenyl]-1-propanone], the “SEAP serum levels in treated mice” value in series [1] is reported as “phloretin-dependent dose-response characteristics”. Besides, the “SEAP level in control mice” value in series [2] worked out at 6.02±0.58 U/L. The “Relative SAMY Production (%)” value in series [3] came to 100.6 ± 7.0%. The half-life in vivo entry in series [4] is given as “rather short half-life in vivo”. Moreover, in series [4] (dermal administration), the “systemic distribution after dermal administration” value is “systemically spread”. For the same molecule, in series [5] (cell-free culture medium, levels determined over 64 h), the functional half-live came to 70 h. The half-live in series [5] (mammalian cell culture systems) came out at 70 h. Further, the “SEAP Production” value was found to be 0.26 ± 0.08 U/L with TtgA3 (TtgR-E2F4) (CHO-K1, phloretin 50 μM); 0.2 ± 0.016 U/L with TtgA3 (TtgR-E2F4) (HEK-293, phloretin 50 μM); 0.5 ± 0.05 U/L in the series on TtgA3 (TtgR-E2F4) (HaCaT, phloretin 50 μM). Moreover, the “SEAP expression (autoregulated circuit)” value on TtgA1 (TtgR-VP16) is listed as “completely repressed”.
